Assay results from patent US12151018B2 (priority 2019, dated 2024).

Test system: Caenorhabditis elegans
Settings: in vivo

argireline
amount needed alone for the same level of effect as argireline 100 ppm plus Z. piperitum extract 500 ppm: 100,000 ppm
